Results reported in patent publication US20220187282A1, “CARDIOMYOCYTE PROLIFERATION” (The Council of the Queensland Institute of Medical Research, priority 2019, published 2022).
Where two headings read alike, the source gives them in different places.

Assays:
Assay type in all cases: biochemical
kinases [1] = molecular target: kinases (Homo sapiens, UniProt P29323); conditions: EPHB2 FRET-Z-Lyte SP; Test Conc(μM):ATP Conc(μM) 1:75
kinases [2] = molecular target: kinases (Homo sapiens, UniProt P42680); conditions: TEC FRET-Lantha SP; Test Conc(μM) 1
kinases [3] = molecular target: kinases (Homo sapiens, UniProt O00238); conditions: BMPR1B (ALK6) FRET-Lantha SP; Test Conc(μM) 1
kinases [4] = molecular target: kinases (Homo sapiens, UniProt Q9UIK4); conditions: DAPK2 FRET-Lantha SP; Test Conc(μM) 1
kinases [5] = molecular target: kinases (Homo sapiens, UniProt Q9NYY3); conditions: PLK2 FRET-Z-Lyte SP; Test Conc(μM):ATP Conc(μM) 1:25
kinases [6] = molecular target: kinases (Homo sapiens, UniProt Q6DT37); conditions: CDC42 BPG FRET-Z-Lyte SP; Test Conc(μM):ATP Conc(μM) 1:5
kinases [7] = molecular target: kinases (Homo sapiens, UniProt P29376); conditions: LTK (TYK1) FRET-Z-Lyte SP; Test Conc(μM):ATP Conc(μM) 1:75
kinases [8] = molecular target: kinases (Homo sapiens, UniProt P21802); conditions: FGFR2 *Mn* FRET-Z-Lyte SP; Test Conc(μM):ATP Conc(μM) 1:5
kinases [9] = molecular target: kinases (Homo sapiens, UniProt P35968); conditions: KDR (VEGFR2) FRET-Z-Lyte SP; Test Conc(μM):ATP Conc(μM) 1:75
kinases [10] = molecular target: kinases (Homo sapiens, UniProt Q9BYP7); conditions: WNK3 FRET-Lantha SP; Test Conc(μM) 1
kinases [11] = molecular target: kinases (Homo sapiens, UniProt Q00526); conditions: CDK3/cyclin E1 FRET-Lantha SP; Test Conc(μM) 1
kinases [12] = molecular target: kinases (Homo sapiens, UniProt P05771); conditions: PRKCB1 (PKC beta I) Z-Lyte SP; Test Conc(μM):ATP Conc(μM) 1:200
kinases [13] = molecular target: kinases (Homo sapiens, UniProt P36894); conditions: BMPR1A (ALK3) FRET-Lantha SP; Test Conc(μM) 1
kinases [14] = molecular target: kinases (Homo sapiens, UniProt Q5S007)
kinases (Homo sapiens, UniProt Q5S007), sequence (Q5S007 whole entry): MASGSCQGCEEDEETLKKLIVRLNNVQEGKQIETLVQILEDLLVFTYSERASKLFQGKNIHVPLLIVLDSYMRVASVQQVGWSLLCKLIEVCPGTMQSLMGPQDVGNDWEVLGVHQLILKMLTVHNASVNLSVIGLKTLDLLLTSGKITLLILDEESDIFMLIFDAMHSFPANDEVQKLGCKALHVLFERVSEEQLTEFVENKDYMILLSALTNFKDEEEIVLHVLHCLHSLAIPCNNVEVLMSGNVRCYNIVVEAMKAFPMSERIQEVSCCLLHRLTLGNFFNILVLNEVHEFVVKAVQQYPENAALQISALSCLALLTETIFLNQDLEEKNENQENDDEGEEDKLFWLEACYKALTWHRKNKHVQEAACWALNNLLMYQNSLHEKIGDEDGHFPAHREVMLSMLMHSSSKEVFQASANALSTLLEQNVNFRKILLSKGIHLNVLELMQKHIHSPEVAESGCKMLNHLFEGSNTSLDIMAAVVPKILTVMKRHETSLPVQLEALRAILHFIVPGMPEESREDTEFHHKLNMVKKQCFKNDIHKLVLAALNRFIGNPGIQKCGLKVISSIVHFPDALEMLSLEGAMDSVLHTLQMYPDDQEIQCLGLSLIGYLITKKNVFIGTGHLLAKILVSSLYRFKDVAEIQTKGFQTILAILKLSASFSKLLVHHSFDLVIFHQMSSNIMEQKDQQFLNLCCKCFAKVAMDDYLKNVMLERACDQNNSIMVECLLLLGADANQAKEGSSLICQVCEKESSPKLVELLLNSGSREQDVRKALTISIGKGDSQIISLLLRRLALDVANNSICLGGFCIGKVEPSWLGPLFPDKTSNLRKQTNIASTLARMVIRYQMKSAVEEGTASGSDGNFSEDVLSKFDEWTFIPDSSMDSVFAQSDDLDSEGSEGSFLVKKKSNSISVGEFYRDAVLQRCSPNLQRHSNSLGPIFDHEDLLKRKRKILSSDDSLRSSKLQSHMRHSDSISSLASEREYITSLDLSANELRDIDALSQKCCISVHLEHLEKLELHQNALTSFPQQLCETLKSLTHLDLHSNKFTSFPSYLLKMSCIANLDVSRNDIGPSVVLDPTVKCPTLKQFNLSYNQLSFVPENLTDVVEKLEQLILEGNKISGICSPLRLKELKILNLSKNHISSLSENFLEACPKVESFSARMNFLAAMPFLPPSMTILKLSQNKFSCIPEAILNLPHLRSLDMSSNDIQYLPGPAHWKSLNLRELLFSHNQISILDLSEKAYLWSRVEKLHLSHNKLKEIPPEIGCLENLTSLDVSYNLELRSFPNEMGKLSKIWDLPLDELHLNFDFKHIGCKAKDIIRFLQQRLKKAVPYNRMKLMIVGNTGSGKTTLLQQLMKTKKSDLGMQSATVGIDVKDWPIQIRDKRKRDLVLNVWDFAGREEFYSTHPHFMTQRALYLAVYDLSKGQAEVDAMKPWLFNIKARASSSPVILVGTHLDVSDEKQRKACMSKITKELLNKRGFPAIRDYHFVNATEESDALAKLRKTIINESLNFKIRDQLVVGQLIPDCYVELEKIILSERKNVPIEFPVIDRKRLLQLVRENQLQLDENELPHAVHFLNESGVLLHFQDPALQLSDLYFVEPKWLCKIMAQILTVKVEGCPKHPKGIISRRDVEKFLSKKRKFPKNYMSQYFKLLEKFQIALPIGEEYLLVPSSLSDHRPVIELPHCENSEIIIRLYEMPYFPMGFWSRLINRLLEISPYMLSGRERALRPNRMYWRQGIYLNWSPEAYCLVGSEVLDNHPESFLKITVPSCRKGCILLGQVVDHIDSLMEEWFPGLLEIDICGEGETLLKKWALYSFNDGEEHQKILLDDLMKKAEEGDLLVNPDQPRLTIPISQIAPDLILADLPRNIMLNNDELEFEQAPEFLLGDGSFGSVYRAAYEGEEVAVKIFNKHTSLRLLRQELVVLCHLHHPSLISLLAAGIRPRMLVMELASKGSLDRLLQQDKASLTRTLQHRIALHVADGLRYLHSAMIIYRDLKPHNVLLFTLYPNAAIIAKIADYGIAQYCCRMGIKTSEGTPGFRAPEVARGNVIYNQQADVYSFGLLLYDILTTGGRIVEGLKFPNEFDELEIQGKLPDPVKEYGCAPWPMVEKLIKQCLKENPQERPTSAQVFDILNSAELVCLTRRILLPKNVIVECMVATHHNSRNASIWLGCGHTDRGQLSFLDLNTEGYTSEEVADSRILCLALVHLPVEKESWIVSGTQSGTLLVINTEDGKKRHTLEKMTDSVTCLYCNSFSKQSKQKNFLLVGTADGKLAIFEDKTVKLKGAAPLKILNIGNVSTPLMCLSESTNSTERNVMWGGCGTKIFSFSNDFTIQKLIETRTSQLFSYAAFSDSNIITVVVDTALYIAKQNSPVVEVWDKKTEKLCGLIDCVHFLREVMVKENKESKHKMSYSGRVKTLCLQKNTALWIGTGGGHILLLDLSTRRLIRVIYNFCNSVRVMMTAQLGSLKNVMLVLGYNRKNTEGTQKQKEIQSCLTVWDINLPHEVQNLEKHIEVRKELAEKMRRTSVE

kinases [15] = molecular target: kinases (Homo sapiens, UniProt P24941)
kinases [16] = molecular target: kinases (Homo sapiens, UniProt Q9H2K8); conditions: TAOK3 (JIK) FRET-Lantha SP; Test Conc(μM) 1
kinases [17] = molecular target: kinases (Homo sapiens, UniProt Q00535)
kinases (Homo sapiens, UniProt Q00535), sequence (Q00535 whole entry): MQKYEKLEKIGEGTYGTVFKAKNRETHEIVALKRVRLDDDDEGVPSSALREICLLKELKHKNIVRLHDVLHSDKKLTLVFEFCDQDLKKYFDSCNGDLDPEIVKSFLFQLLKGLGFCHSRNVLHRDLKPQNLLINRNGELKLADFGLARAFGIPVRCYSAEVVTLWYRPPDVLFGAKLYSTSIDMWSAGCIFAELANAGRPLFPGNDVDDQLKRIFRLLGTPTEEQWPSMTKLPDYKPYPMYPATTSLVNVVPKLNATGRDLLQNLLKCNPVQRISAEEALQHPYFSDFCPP

kinases [18] = molecular target: kinases (Homo sapiens, UniProt Q9Y2H1); conditions: STK38L (NDR2) FRET-Lantha SP; Test Conc(μM) 1
kinases [19] = molecular target: kinases (Homo sapiens, UniProt Q8IY84); conditions: NIM1K FRET-Z-Lyte SP; Test Conc(μM):ATP Conc(μM) 1:10
kinases (Homo sapiens, UniProt Q8IY84), sequence (Q8IY84 whole entry): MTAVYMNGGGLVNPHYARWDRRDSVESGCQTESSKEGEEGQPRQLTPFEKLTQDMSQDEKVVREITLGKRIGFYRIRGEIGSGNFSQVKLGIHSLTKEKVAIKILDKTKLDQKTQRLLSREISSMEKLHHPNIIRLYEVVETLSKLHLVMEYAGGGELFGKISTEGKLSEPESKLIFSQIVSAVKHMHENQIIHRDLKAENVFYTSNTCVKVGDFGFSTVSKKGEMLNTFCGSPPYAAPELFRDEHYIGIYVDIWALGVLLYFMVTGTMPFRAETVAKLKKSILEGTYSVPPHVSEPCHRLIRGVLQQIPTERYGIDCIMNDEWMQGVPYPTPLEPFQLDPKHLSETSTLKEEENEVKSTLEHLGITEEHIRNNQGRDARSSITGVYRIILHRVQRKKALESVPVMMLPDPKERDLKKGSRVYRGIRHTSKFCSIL

kinases [20] = molecular target: kinases (Homo sapiens, UniProt P19525); conditions: EIF2AK2 (PKR) FRET-Lantha SP; Test Conc(μM) 1
kinases [21] = molecular target: kinases (Homo sapiens, UniProt P52333); conditions: JAK3 FRET-Z-Lyte SP; Test Conc(μM):ATP Conc(μM) 1:10
kinases [22] = molecular target: kinases (Homo sapiens, UniProt P04629); conditions: NTRK1 (TRKA) FRET-Z-Lyte SP; Test Conc(μM):ATP Conc(μM) 1:400
kinases [23] = molecular target: kinases (Homo sapiens, UniProt P42679); conditions: MATK (HYL) FRET-Z-Lyte SP
kinases [24] = molecular target: kinases (Homo sapiens, UniProt P11309); conditions: PIM1 FRET-Z-Lyte SP; Test Conc(μM):ATP Conc(μM) 1:400
kinases [25] = molecular target: kinases (Homo sapiens, UniProt Q9HCP0); conditions: CSNK1G1 (CK1gamma1) Z-Lyte SP; Test Conc(μM):ATP Conc(μM) 1:5
kinases [26] = molecular target: kinases (Homo sapiens, UniProt Q02779); conditions: MAP3K10 (MLK2) FRET-Lantha SP; Test Conc(μM) 1
kinases (Homo sapiens, UniProt Q02779), sequence (Q02779 whole entry): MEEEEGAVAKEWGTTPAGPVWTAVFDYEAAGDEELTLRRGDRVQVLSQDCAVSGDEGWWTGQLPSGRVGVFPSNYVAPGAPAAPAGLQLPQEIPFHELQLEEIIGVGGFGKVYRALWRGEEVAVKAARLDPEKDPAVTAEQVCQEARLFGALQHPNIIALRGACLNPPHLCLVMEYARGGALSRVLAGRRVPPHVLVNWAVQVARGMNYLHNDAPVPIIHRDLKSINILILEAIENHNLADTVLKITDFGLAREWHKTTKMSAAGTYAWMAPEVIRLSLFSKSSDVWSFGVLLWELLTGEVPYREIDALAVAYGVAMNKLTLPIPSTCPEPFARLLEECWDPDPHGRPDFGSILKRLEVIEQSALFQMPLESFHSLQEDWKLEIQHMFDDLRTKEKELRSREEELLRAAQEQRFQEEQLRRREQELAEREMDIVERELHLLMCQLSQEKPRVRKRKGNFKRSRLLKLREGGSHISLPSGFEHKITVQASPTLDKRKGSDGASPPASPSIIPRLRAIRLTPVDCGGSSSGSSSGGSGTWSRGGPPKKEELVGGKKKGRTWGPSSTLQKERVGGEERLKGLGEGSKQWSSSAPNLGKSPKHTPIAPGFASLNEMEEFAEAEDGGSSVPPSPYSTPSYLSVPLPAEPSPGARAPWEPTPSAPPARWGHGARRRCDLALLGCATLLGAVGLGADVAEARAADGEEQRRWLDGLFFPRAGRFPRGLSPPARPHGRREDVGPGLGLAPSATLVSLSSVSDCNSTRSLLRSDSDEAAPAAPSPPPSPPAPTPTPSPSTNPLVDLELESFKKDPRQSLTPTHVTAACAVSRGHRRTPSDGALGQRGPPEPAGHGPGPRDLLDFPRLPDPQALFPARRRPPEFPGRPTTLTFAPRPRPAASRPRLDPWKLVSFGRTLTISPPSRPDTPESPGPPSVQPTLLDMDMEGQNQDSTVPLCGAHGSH

kinases [27] = molecular target: kinases (Homo sapiens, UniProt Q9H093); conditions: NUAK2 FRET-Lantha SP; Test Conc(μM) 1
kinases (Homo sapiens, UniProt Q9H093), sequence (Q9H093 whole entry): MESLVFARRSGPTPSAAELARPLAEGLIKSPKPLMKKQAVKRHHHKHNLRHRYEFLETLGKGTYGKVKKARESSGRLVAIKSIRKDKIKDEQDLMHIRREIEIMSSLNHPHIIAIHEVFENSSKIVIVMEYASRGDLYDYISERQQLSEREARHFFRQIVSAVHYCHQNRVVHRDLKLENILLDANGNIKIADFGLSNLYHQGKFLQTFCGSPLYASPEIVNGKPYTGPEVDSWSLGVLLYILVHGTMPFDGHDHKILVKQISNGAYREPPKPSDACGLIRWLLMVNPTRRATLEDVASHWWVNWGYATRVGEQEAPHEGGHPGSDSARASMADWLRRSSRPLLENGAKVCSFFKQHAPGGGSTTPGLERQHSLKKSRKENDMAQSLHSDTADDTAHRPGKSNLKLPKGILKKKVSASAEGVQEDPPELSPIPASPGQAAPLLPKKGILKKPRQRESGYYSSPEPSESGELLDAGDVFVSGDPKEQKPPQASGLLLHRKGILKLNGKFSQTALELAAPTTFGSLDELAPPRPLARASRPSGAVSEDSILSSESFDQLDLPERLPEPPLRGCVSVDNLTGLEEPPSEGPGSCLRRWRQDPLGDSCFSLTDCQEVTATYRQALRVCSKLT

kinases [28] = molecular target: kinases (Homo sapiens, UniProt Q9BUB5); conditions: MKNK1 (MNK1) *Mn* Z-Lyte SP; Test Conc(μM):ATP Conc(μM) 1:100
[29] = LRRK2 FL FRET-Adapta SP, Test Conc(μM):ATP Conc(μM) 1:50
[30] = LRRK2 Hu Phos FRET-Adapta SP, Test Conc(μM):ATP Conc(μM) 1:75
[31] = CDK2/Cyclin E1 FRET-Lantha SP, Test Conc(μM) 1
[32] = CDK2/Cyclin O FRET-Lantha SP, Test Conc(μM) 1
[33] = CDK2/cyclin A1 FRET-Lantha SP, Test Conc(μM) 1
[34] = CDK2/cyclin A FRET-Z-Lyte SP, Test Conc(μM):ATP Conc(μM) 1:25
[35] = CDK5 (Inactive) FRET-Lantha SP, Test Conc(μM) 1
[36] = CDK5/p25 FRET-Z-Lyte SP, Test Conc(μM):ATP Conc(μM) 1:10
[37] = CDK5/p35 FRET-Z-Lyte SP, Test Conc(μM):ATP Conc(μM) 1:10

| SMILES | Mean Inhib (%) (kinases [1]) | Mean Inhib (%) (kinases [2]) | Mean Inhib (%) (kinases [3]) | Mean Inhib (%) (kinases [4]) | Mean Inhib (%) (kinases [5]) | Mean Inhib (%) (kinases [6]) | Mean Inhib (%) (kinases [7]) | Mean Inhib (%) (kinases [8]) | Mean Inhib (%) (kinases [9]) | Mean Inhib (%) (kinases [10]) | Mean Inhib (%) (kinases [11]) | Mean Inhib (%) (kinases [12]) | Mean Inhib (%) (kinases [13]) | Mean Inhib (%) (kinases [14]; [29]) | Mean Inhib (%) (kinases [14]; [30]) | Mean Inhib (%) (kinases [15]; [31]) | Mean Inhib (%) (kinases [15]; [32]) | Mean Inhib (%) (kinases [15]; [33]) | Mean Inhib (%) (kinases [15]; [34]) | Mean Inhib (%) (kinases [16]) | other results |
| --- | --- | --- | --- | --- | --- | --- | --- | --- | --- | --- | --- | --- | --- | --- | --- | --- | --- | --- | --- | --- | --- |
| Cc1ccc(NC(=O)c2ccnc(N3CCOCC3)c2)cc1Nc1ccnc(N2CC(C)OC(C)C2)n1 (centres unmarked) [compound 3] | 6.1 | 5.7 | 11.9 | −2.5 | 1.8 | 2.2 | −6.4 | 15.8 | 3.2 | 5.3 | 6.0 | 27.7 | −1.5 | 0.5 | 13.2 | 13.8 | 2.7 | −1.8 | 6.2 | 0.3 | Mean Inhib (%) (kinases [17]; [35]): 5.2%; Mean Inhib (%) (kinases [17]; [36]): 2.0%; Mean Inhib (%) (kinases [17]; [37]): 0.9%; Mean Inhib (%) (kinases [18]): 15.6%; Mean Inhib (%) (kinases [19]): −0.9%; Mean Inhib (%) (kinases [20]): 2.8%; Mean Inhib (%) (kinases [21]): 7.2%; Mean Inhib (%) (kinases [22]): 30.7%; Mean Inhib (%) (kinases [23]; Test Conc(μM):ATP Conc(μM) 1:300): 3.2%; Mean Inhib (%) (kinases [24]): 7.8%; Mean Inhib (%) (kinases [25]): 5.2%; Mean Inhib (%) (kinases [26]): 0.6%; Mean Inhib (%) (kinases [27]): 14.1%; Mean Inhib (%) (kinases [28]): 5.3% |
| Cc1cc(Oc2ccnc(Nc3ccc(S(N)(=O)=O)cc3)c2)c(-c2ccccn2)nc1C [compound 65] | 58.7 | −1.4 | 107.0 | −0.8 | 14.0 | −5.0 | −3.9 | 6.0 | 3.8 | −2.5 | 9.6 | −7.3 | 83.6 | 3.0 | 6.1 | 10.6 | 3.0 | 4.9 | 5.0 | 1.7 | Mean Inhib (%) (kinases [17]; [35]): 17.2%; Mean Inhib (%) (kinases [17]; [36]): 8.0%; Mean Inhib (%) (kinases [17]; [37]): 2.5%; Mean Inhib (%) (kinases [18]): 5.5%; Mean Inhib (%) (kinases [19]): −0.4%; Mean Inhib (%) (kinases [20]): 3.6%; Mean Inhib (%) (kinases [21]): −7.8%; Mean Inhib (%) (kinases [22]): 20.1%; Mean Inhib (%) (kinases [23]; Test Conc(μM):ATP Conc(μM) 0.25): 1.8%; Mean Inhib (%) (kinases [24]): 3.8%; Mean Inhib (%) (kinases [25]): −1.9%; Mean Inhib (%) (kinases [26]): 2.7%; Mean Inhib (%) (kinases [27]): 9.4%; Mean Inhib (%) (kinases [28]): 1.5% |
